Reference: paper PMC4626375, “In Vitro Mutational and Bioinformatics Analysis of the M71 Odorant Receptor and Its Superfamily” (PLoS ONE, 2015)

Legend:
[1] = target: T1, M71 odorant receptor (Mus musculus, UniProt Q60893); assay: patch clamp of dendritic knobs of M71- or M71::GFP-expressing olfactory sensory neurons, dose response; type: cell-based; parameters: gene Or8a1; full-length M71 and M71::GFP C-terminal fusion expressed in olfactory sensory neurons
T1 sequence (Q60893 1-309): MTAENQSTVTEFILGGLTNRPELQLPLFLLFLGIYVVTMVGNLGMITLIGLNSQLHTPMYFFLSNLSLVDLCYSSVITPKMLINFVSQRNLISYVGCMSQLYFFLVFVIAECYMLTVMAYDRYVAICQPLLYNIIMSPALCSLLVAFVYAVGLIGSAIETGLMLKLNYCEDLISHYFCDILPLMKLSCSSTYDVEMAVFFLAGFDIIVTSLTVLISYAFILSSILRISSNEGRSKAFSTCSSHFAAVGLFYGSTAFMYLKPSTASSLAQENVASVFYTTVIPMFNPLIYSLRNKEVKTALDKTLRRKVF

[2] = target: T1, M71 odorant receptor; parameters: gene Or8a1

| SMILES | EC50 [1] [µM] | patch clamp of dendritic knobs of olfactory sensory neurons, peak current at 10 [2] |
| --- | --- | --- |
| CC(=O)c1ccccc1N [2aACP, 2-amino acetophenone] | 0.65 ± 0.08 | – |
| CCc1occc(=O)c1O [eMLT, ethyl maltol] | – | olfactory neurons expressing either M71 or M71::GFP are activated by M71 specific ligands |
